# Results taken from ChEMBL document CHEMBL1697723, “A predictive ligand-based Bayesian model for human drug-induced liver injury” (Drug Metab Dispos, 2010).
# Test system: Hepatotoxicity
# Assay: Human drug-induced liver injury (DILI) modelling dataset from Ekins et al
# Conditions: not given
row,Compound,Hepatotoxicity
1,Cc1ccc(Nc2c(F)cccc2Cl)c(CC(=O)O)c1 [LUMIRACOXIB],DILI positive (test set)
2,CC(C)(CO)[C@@H](O)C(=O)NCCC(=O)[O-].CC(C)(CO)[C@@H](O)C(=O)NCCC(=O)[O-].[Ca+2] [CALCIUM PANTOTHENATE],DILI negative (training set)
3,Cc1cc(CC(=O)O)n(C)c1C(=O)c1ccc(Cl)cc1 [ZOMEPIRAC],DILI negative (training set)
4,COc1cc2c(c3oc(=O)c4c(c13)CCC4=O)[C@@H]1C=CO[C@@H]1O2 [AFLATOXIN],DILI positive (test set)
5,CC(C(=O)O)c1cccc(C(=O)c2ccccc2)c1 (centres undefined) [KETOPROFEN],DILI negative (test set)
6,Cl.NC12CC3CC(CC(C3)C1)C2 [AMANTADINE HYDROCHLORIDE],DILI negative (training set)
7,CC(=O)CC(c1ccccc1)c1c(O)c2ccccc2oc1=O (centres undefined) [WARFARIN],DILI negative (training set)
8,CC[N+](C)(CC)CCOC(=O)C(O)(c1ccccc1)C1CCCCC1 (centres undefined) [OXYPHENONIUM],DILI negative (training set)
9,CN(C)[C@@H]1C(O)=C(C(N)=O)C(=O)[C@@]2(O)C(O)=C3C(=O)c4c(O)cccc4[C@@](C)(O)[C@H]3C[C@@H]12 [TETRACYCLINE],DILI positive (training set)
10,COCc1c(C(C)C)nc(C(C)C)c(/C=C/[C@@H](O)C[C@@H](O)CC(=O)O)c1-c1ccc(F)cc1 [CERIVASTATIN],DILI positive (test set)
11,CC(=O)N[C@@H](CS)C(=O)O [ACETYLCYSTEINE],DILI negative (test set)
12,COC(=O)C1=C(C)NC(C)=C(C(=O)OC)C1c1ccccc1[N+](=O)[O-] [NIFEDIPINE],DILI positive (training set)
13,CC(CCc1ccccc1)NCC(O)c1ccc(O)c(C(N)=O)c1 (centres undefined) [LABETALOL],DILI positive (training set)
14,O=c1[nH]cnc2c1ncn2[C@H]1CC[C@@H](CO)O1 [DIDANOSINE],DILI positive (training set)
15,C[C@H]1COc2c(N3CCN(C)CC3)c(F)cc3c(=O)c(C(=O)O)cn1c23.C[C@H]1COc2c(N3CCN(C)CC3)c(F)cc3c(=O)c(C(=O)O)cn1c23.O [LEVOFLOXACIN],DILI negative (training set)
16,N[C@H]1C(O)O[C@H](CO)[C@@H](O)[C@@H]1O (some centres undefined) [GLUCOSAMINE],DILI positive (training set)
17,Cn1c(=O)c2[nH]cnc2n(C)c1=O.O [THEOPHYLLINE],DILI negative (test set)
18,CN(N=O)C(=O)N[C@@H](C=O)[C@@H](O)[C@H](O)[C@H](O)CO [STREPTOZOCIN],DILI negative (test set)
19,CCC1(c2ccccc2)C(=O)NCNC1=O [PRIMIDONE],DILI negative (training set)
20,C#C[C@]1(OC(C)=O)CC[C@H]2[C@@H]3CCC4=C[C@@H](OC(C)=O)CC[C@@H]4[C@H]3CC[C@@]21C [ETHYNODIOL DIACETATE],DILI positive (training set)
21,Nc1ncnc2c1ncn2[C@@H]1O[C@H](CO)[C@@H](O)[C@H]1O [ADENOSINE],DILI negative (training set)
22,Cc1onc(-c2ccccc2Cl)c1C(=O)N[C@@H]1C(=O)N2[C@@H]1SC(C)(C)[C@@H]2C(=O)[O-].O.[Na+] [CLOXACILLIN SODIUM],DILI positive (test set)
23,CCN1CCN(C(=O)N[C@@H](C(=O)N[C@@H]2C(=O)N3C(C(=O)O)=C(CSc4nnnn4C)CS[C@H]23)c2ccc(O)cc2)C(=O)C1=O.O.O [CEFOPERAZONE DIHYDRATE],DILI negative (training set)
24,CC(=O)N1CCN(c2ccc(OCC3COC(Cn4ccnc4)(c4ccc(Cl)cc4Cl)O3)cc2)CC1 (centres undefined) [KETOCONAZOLE],DILI positive (test set)
25,CN(C)C(=O)Oc1ccc[n+](C)c1.[Br-] [PYRIDOSTIGMINE BROMIDE],DILI negative (training set)
26,Nc1ccc(Cc2ccc(N)cc2)cc1,DILI positive (test set)
27,CN(Cc1cnc2nc(N)nc(N)c2n1)c1ccc(C(=O)N[C@@H](CCC(=O)O)C(=O)O)cc1 [METHOTREXATE],DILI positive (training set)

row,Compound,Hepatotoxicity
1,CC(=N)S [THIOACETAMIDE],DILI positive (training set)
2,CC(=O)Nc1ccc(O)cc1 [ACETAMINOPHEN],DILI positive (training set)
3,CC(N)C(O)c1ccccc1.Cl (centres undefined) [PHENYLPROPANOLAMINE HYDROCHLORIDE],DILI negative (training set)
4,CC[C@@H](CO)NC(=O)[C@@H]1C=C2c3cccc4[nH]cc(c34)C[C@H]2N(C)C1.O=C(O)/C=C\C(=O)O [METHYLERGONOVINE MALEATE],DILI negative (training set)
5,O=C(O)c1cc(-c2ccccc2)nc2ccccc12 [CINCHOPHEN],DILI positive (test set)
6,N[C@@H](Cc1cc(I)c(Oc2ccc(O)c(I)c2)c(I)c1)C(=O)O [LIOTHYRONINE],DILI negative (test set)
7,CC(C)(C)NC(=O)[C@@H]1CN(Cc2cccnc2)CCN1C[C@@H](O)C[C@@H](Cc1ccccc1)C(=O)N[C@H]1c2ccccc2C[C@H]1O.O=S(=O)(O)O [INDINAVIR SULFATE],DILI negative (test set)
8,CC[C@@H]1C(=O)OC[C@@H]1Cc1cncn1C [PILOCARPINE],DILI negative (training set)
9,Br.COc1ccc2c(c1)[C@]13CCCC[C@@H]1[C@H](C2)N(C)CC3.O [DEXTROMETHORPHAN HYDROBROMIDE],DILI negative (training set)
10,CC(C)Cc1ccc(CC(=O)O)cc1 [IBUFENAC],DILI positive (test set)
11,CC(C)C(=O)Nc1ccc([N+](=O)[O-])c(C(F)(F)F)c1 [FLUTAMIDE],DILI positive (training set)
12,Cc1cc(C2CCCCC2)n(O)c(=O)c1 [CICLOPIROX],DILI negative (training set)
13,CS(=O)(=O)OCCOS(C)(=O)=O [ETHANE DIMETHANE SULFONATE],DILI positive (test set)
14,CC(CCc1ccc(O)cc1)NCCc1ccc(O)c(O)c1.Cl (centres undefined) [DOBUTAMINE HYDROCHLORIDE],DILI negative (training set)
15,Clc1ccc(CSC(Cn2ccnc2)c2ccc(Cl)cc2Cl)cc1.O=[N+]([O-])O (centres undefined) [SULCONAZOLE NITRATE],DILI negative (test set)
16,CC[C@]1(O)C[C@@H]2CN(CCc3c([nH]c4ccccc34)[C@@](C(=O)OC)(c3cc4c(cc3OC)N(C)[C@H]3[C@@](O)(C(=O)OC)[C@H](OC(C)=O)[C@]5(CC)C=CCN6CC[C@]43[C@@H]65)C2)C1.O=S(=O)(O)O [VINBLASTINE SULFATE],DILI negative (test set)
17,O=C1OCCN1/N=C/c1ccc([N+](=O)[O-])o1 [FURAZOLIDONE],DILI positive (training set)
18,CC(C)Cc1ccc(C(C)C(=O)O)cc1 (centres undefined) [IBUPROFEN],DILI negative (test set)
19,NC(=O)NO [HYDROXYUREA],DILI positive (training set)
20,COc1c(N2CCNC(C)C2)c(F)cc2c(=O)c(C(=O)O)cn(C3CC3)c12 (centres undefined) [GATIFLOXACIN],DILI negative (training set)
21,Oc1c(Cl)cc(Cl)c(Cl)c1Cc1c(O)c(Cl)cc(Cl)c1Cl [HEXACHLOROPHENE],DILI positive (test set)
22,Clc1ccccc1C(c1ccccc1)(c1ccccc1)n1ccnc1 [CLOTRIMAZOLE],DILI negative (training set)
23,NC[C@H]1O[C@H](O[C@H]2[C@H](O)[C@@H](O[C@H]3O[C@H](CO)[C@@H](O)[C@H](N)[C@H]3O)[C@H](N)C[C@@H]2N)[C@H](N)C[C@@H]1O [TOBRAMYCIN],DILI positive (test set)
24,CCN(CC)CCNc1ccc(CO)c2sc3ccccc3c(=O)c12 [HYCANTHONE],DILI positive (training set)
25,CCC(=O)O[C@H]1[C@H](O[C@@H]2[C@@H](C)[C@H](O[C@H]3C[C@@](C)(OC)[C@@H](O)[C@H](C)O3)[C@@H](C)C(=O)O[C@H](CC)[C@@](C)(O)[C@H](O)[C@@H](C)C(=O)[C@H](C)C[C@@]2(C)O)O[C@H](C)C[C@@H]1N(C)C.CCCCCCCCCCCCOS(=O)(=O)O [ERYTHROMYCIN ESTOLATE],DILI positive (training set)
26,Cc1scc2c1N(C(=O)CN1CCN(C)CC1)c1ccccc1NC2=O [TELENZEPINE],DILI negative (test set)
27,CC1(C)O[C@@H]2[C@@H](CO[C@@]3(COS(N)(=O)=O)OC(C)(C)O[C@@H]23)O1 [TOPIRAMATE],DILI negative (test set)

# Same assay, conditions: Liver
row,Compound,Hepatotoxicity
1,CCN(CC)Cc1cc(Nc2ccnc3cc(Cl)ccc23)ccc1O.Cl.Cl.Cl,DILI positive (test set)
2,CC(C)NCC(O)COc1ccc(CC(N)=O)cc1 (centres undefined) [ATENOLOL],DILI negative (training set)
3,CN[C@H]1CC[C@@H](c2ccc(Cl)c(Cl)c2)c2ccccc21 [SERTRALINE],DILI negative (training set)
4,CC(C)n1c(/C=C/C(O)CC(O)CC(=O)O)c(-c2ccc(F)cc2)c2ccccc21 (centres undefined) [FLUVASTATIN],DILI negative (training set)
5,CN1CCCCC1CCN1c2ccccc2Sc2ccc([S+](C)[O-])cc21.O=S(=O)(O)c1ccccc1 (centres undefined) [MESORIDAZINE BESYLATE],DILI positive (training set)
6,C#CC1(O)CC[C@H]2[C@@H]3CCC4=CC(=O)CC[C@@H]4[C@H]3CC[C@@]21CC (some centres undefined) [NORGESTREL],DILI positive (training set)
7,NC(CO)(CO)CO [TROMETHAMINE],DILI negative (test set)
8,CN(C)C(=N)N=C(N)N [METFORMIN],DILI negative (test set)
9,CN[C@@H]1[C@H](O[C@H]2[C@H](O[C@H]3[C@H](O)[C@@H](O)[C@H](N=C(N)N)[C@@H](O)[C@@H]3N=C(N)N)O[C@@H](C)[C@]2(O)C=O)O[C@@H](CO)[C@H](O)[C@H]1O.CN[C@@H]1[C@H](O[C@H]2[C@H](O[C@H]3[C@H](O)[C@@H](O)[C@H](N=C(N)N)[C@@H](O)[C@@H]3N=C(N)N)O[C@@H](C)[C@]2(O)C=O)O[C@@H](CO)[C@H](O)[C@H]1O.O=S(=O)(O)O.O=S(=O)(O)O.O=S(=O)(O)O [STREPTOMYCIN SULFATE],DILI negative (training set)
10,CC(=O)O[C@H]1C(=O)[C@@]2(C)[C@H]([C@H](OC(=O)c3ccccc3)[C@]3(O)C[C@H](OC(=O)[C@H](O)[C@@H](NC(=O)c4ccccc4)c4ccccc4)C(C)=C1C3(C)C)[C@]1(OC(C)=O)CO[C@@H]1C[C@@H]2O [PACLITAXEL],DILI positive (test set)
